For data set [1] the following is noted: studies have shown; cited from earlier work.
The subject of a further data set is THG15 cells. Kind of data set: Cell viability assay (CCK-8). The data set is classed as cell-based. Particulars: Homo sapiens, 72 hours, estimated IC50, read-out: IC50 (half maximal inhibitory concentration), cell viability.

Protocol for THG15 cells: Patient-derived tumor cell were obtained with the approval of the Ethics Committee of the Beijing Tsinghua Changgung Hospital in compliance with informed consent of the patient and their family. […] Briefly, the tissues were mechanically minced and then digested with 0.1% trypsin (Hyclone) and 10 U/ml DNasel (Roche) at 37° C. for 45 min. The tissues were passed through a 100-μm cell strainer after lysis of red blood cells and several washes. Cells that that passed through the filter were collected and added with EF medium composed of Neurobasal medium, 3 mM L-glutamine, 1×B27 supplement, 0.5×N2 supplement, 2 μg/mL heparin, 20 ng/mL recombinant human EGF (Sigma-Aldrich), 20 ng/mL recombinant human FGF2 (Sigma-Aldrich), and 0.5×antibiotic antimycotic complex. Fresh EF medium was replenished every 3 days during cell culture. Tumor cell spheres were dissociated using NeuroCult Chemical Dissociation kit (StemCell), and cells were passaged.
Panobinostat (LBH589) and Tazemetostat (EPZ-6438) were purchased from Selleck Chemicals and dissolved in 0.1% DMSO before use. About 5,000 THG15 cells were seeded into each well of a 96-well plate and cultured in EF medium for 24 hours prior to drug intervention. […] According to the instructions, cell viability was determined by using a CCK-8 kit (GK10001), and the optical density was measured at 450 nm using a SPARK reader (TECAN). […]

In the case of `Cc1[nH]c2ccccc2c1CCNCc1ccc(/C=C/C(=O)NO)cc1` [panobinostat, Panobinostat], the “penetration of the blood-brain barrier” value in data set [1] is listed as “can penetrate the blood-brain barrier”. The IC50 with THG15 cells was around 1 µM.

On to `CCN(c1cc(-c2ccc(CN3CCOCC3)cc2)cc(C(=O)NCc2c(C)cc(C)[nH]c2=O)c1C)C1CCOCC1` [tazemetostat, Tazemetostat], for which the IC50 in the data set with THG15 cells is around 50 µM.

The values above are taken from patent publication US20260183300A1, “PHARMACEUTICAL COMPOSITION AND USE THEREOF” (priority 2022, published 2026).
